ChEMBL document CHEMBL1201862, “PubChem BioAssay data set” (2004)
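Compound exposure: 48 hours, 5 concentrations, 96-well plates. GI50 = concentration required for 50% inhibition of growth.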 The source made the active and inactive calls. Rule as the data show it: active = GI50 up to about 1.1 µM and inactive = higher.

Tests used:
Experiment in all cases: NCI anticancer screen, dose series, 48 h
EKVX = tested on: EKVX
NCI-H460 = tested on: NCI-H460
TK-10 = tested on: TK-10
SK-OV-3 = tested on: SK-OV-3
COLO 205 = tested on: COLO 205
MOLT-4 = tested on: MOLT-4
SK-MEL-5 = tested on: SK-MEL-5
HCT-116 = tested on: HCT-116
UACC-62 = tested on: UACC-62
UO-31 = tested on: UO-31
KM-20L2 = tested on: KM-20L2
RPMI-8226 = tested on: RPMI-8226
HT-29 = tested on: HT-29
DMS-273 = tested on: DMS-273
HCT-15 = tested on: HCT-15
SN12C = tested on: SN12C
K562 = tested on: K562
DU-145 = tested on: DU-145
Hs-578T = tested on: Hs-578T

Measured: GI50

COc1ccc(C=O)c(NC(=O)C(C)C)c1
33.3 µM: HCT-15
inactive: EKVX 31.6 µM | NCI-H460 > 100 µM | TK-10 85.7 µM | SK-OV-3 > 100 µM | COLO 205 18.2 µM | MOLT-4 21.3 µM | SK-MEL-5 > 10 µM | HCT-116 15.8 µM | UACC-62 30.3 µM | UO-31 33.3 µM | KM-20L2 51.5 µM | RPMI-8226 20.5 µM | HT-29 66.7 µM | DMS-273 28.9 µM | SN12C 23 µM | K562 31 µM

O=c1cccccc1NCCCCCCNc1cccccc1=O
> 100 µM: HCT-15
inactive: EKVX > 100 µM | NCI-H460 > 100 µM | TK-10 > 100 µM | SK-OV-3 > 100 µM | COLO 205 > 100 µM | MOLT-4 > 100 µM | SK-MEL-5 > 100 µM | HCT-116 > 100 µM | UACC-62 > 100 µM | UO-31 > 100 µM | KM-20L2 > 100 µM | RPMI-8226 > 100 µM | HT-29 > 100 µM | DMS-273 > 100 µM | SN12C > 100 µM | K562 > 100 µM

COC(=O)C1=C(OC)c2cc3c(cc2C(c2cc(OC)c(OC)c(OC)c2)C1C(=O)OC)OCO3 (centres undefined)
> 100 µM: HCT-15
inactive: EKVX > 100 µM | NCI-H460 > 100 µM | TK-10 > 100 µM | SK-OV-3 > 100 µM | COLO 205 38.7 µM | MOLT-4 30.5 µM | SK-MEL-5 > 100 µM | HCT-116 > 100 µM | UACC-62 > 100 µM | UO-31 > 100 µM | KM-20L2 > 100 µM | RPMI-8226 40.6 µM | HT-29 > 100 µM | DMS-273 > 100 µM | SN12C > 100 µM | K562 > 100 µM

CP(=O)(CCSc1ccccc1)c1ccccc1 (centres undefined)
inactive: EKVX > 100 µM | NCI-H460 > 100 µM | TK-10 > 100 µM | SK-OV-3 > 100 µM | COLO 205 > 100 µM | MOLT-4 > 100 µM | SK-MEL-5 > 100 µM | HCT-116 > 100 µM | UACC-62 > 100 µM | UO-31 > 100 µM | KM-20L2 > 100 µM | RPMI-8226 > 100 µM | HT-29 > 100 µM | DMS-273 > 100 µM | SN12C > 100 µM | K562 > 100 µM
> 100 µM: HCT-15

C/N=c1\ss/c(=N\C(=S)N(C)C)n1-c1ccccc1
> 100 µM: HCT-15
inactive: EKVX > 100 µM | NCI-H460 > 100 µM | TK-10 > 100 µM | SK-OV-3 > 100 µM | COLO 205 > 100 µM | MOLT-4 > 100 µM | SK-MEL-5 > 20.7 µM | HCT-116 > 72.8 µM | UACC-62 > 22.9 µM | UO-31 > 55.7 µM | KM-20L2 > 100 µM | RPMI-8226 > 100 µM | HT-29 > 31.6 µM | DMS-273 > 100 µM | SN12C > 100 µM | K562 > 100 µM

CC(=O)OCCOCNC(=S)N/N=C(\C)c1cnc2ccccc2n1
inactive: EKVX 8.53 µM | NCI-H460 27 µM | TK-10 > 100 µM | SK-OV-3 33.3 µM | COLO 205 20.1 µM | MOLT-4 28.6 µM | SK-MEL-5 25.1 µM | HCT-116 25.4 µM | UACC-62 14.2 µM | UO-31 41.5 µM | KM-20L2 16.3 µM | RPMI-8226 47.8 µM | HT-29 29.6 µM | DMS-273 31.9 µM | SN12C 50.4 µM | K562 43.4 µM
34 µM: HCT-15

CC1S(=O)(=O)OCCOS1(=O)=O
> 100 µM: HCT-15
inactive: EKVX > 100 µM | NCI-H460 31.7 µM | TK-10 > 100 µM | SK-OV-3 > 100 µM | COLO 205 > 100 µM | MOLT-4 18 µM | SK-MEL-5 50.1 µM | HCT-116 > 95.7 µM | UACC-62 22.6 µM | UO-31 > 100 µM | KM-20L2 > 100 µM | RPMI-8226 > 100 µM | HT-29 > 100 µM | DMS-273 60 µM | SN12C 77.4 µM | K562 > 100 µM

O=C(Cc1ccccc1)NN1C(=O)C(Cl)C1c1ccc(Cl)cc1 (centres undefined)
inactive: EKVX > 100 µM | NCI-H460 > 100 µM | TK-10 > 100 µM | SK-OV-3 > 100 µM | COLO 205 > 100 µM | MOLT-4 30.6 µM | SK-MEL-5 > 100 µM | HCT-116 > 100 µM | UACC-62 > 100 µM | UO-31 62.4 µM | KM-20L2 > 100 µM | RPMI-8226 51.4 µM | HT-29 > 100 µM | DMS-273 > 100 µM | SN12C > 100 µM | K562 72.9 µM
> 100 µM: HCT-15

CC(C)OC(=O)c1cc(NC(=O)C(C)(C)C)c(F)cc1Cl
> 100 µM: HCT-15
inactive: EKVX > 100 µM | NCI-H460 > 100 µM | TK-10 > 100 µM | SK-OV-3 > 100 µM | COLO 205 > 100 µM | MOLT-4 > 100 µM | SK-MEL-5 > 100 µM | HCT-116 > 100 µM | UACC-62 > 100 µM | UO-31 > 100 µM | KM-20L2 > 100 µM | RPMI-8226 > 100 µM | HT-29 > 100 µM | DMS-273 > 100 µM | SN12C > 100 µM | K562 > 100 µM

CC#N.O[C@@H]1CCCC[C@@H]1O.O[C@@H]1CCCC[C@@H]1O.[TeH2]
inactive: EKVX > 100 µM | NCI-H460 3.72 µM | TK-10 > 100 µM | SK-OV-3 77.8 µM | COLO 205 84.3 µM | MOLT-4 13.8 µM | SK-MEL-5 40.6 µM | HCT-116 15.4 µM | UACC-62 > 100 µM | UO-31 57.1 µM | KM-20L2 65.5 µM | RPMI-8226 37.2 µM | HT-29 33.4 µM | DMS-273 19.6 µM | SN12C 24.2 µM | K562 18.7 µM
18.8 µM: HCT-15

Sc1nc(S)nc(Oc2ccc(Cl)c(Cl)c2)n1
43.5 µM: HCT-15
inactive: DU-145 57.9 µM | EKVX 42.1 µM | NCI-H460 25.5 µM | TK-10 > 66.1 µM | SK-OV-3 > 51.5 µM | COLO 205 > 42.3 µM | MOLT-4 18.1 µM | SK-MEL-5 24.5 µM | HCT-116 30.6 µM | UACC-62 31.3 µM | UO-31 24.6 µM | Hs-578T 89.1 µM | KM-20L2 33.6 µM | RPMI-8226 9.95 µM | HT-29 49.5 µM | DMS-273 19 µM | SN12C 37.9 µM | K562 16.5 µM
